Experimental data as given in ChEMBL document CHEMBL4028866 (J Med Chem, 2017).

Key:
Rattus norvegicus = species: Rattus norvegicus; settings: in vivo, po
in vivo [1] = settings: Sprague-Dawley, rat, iv, 1 mg/mg
in vivo [2] = settings: Sprague-Dawley, rat, po, 10 mg/mg
in vivo [3] = settings: Sprague-Dawley, rat, iv, 1 mg/mg; remark: listed apart in the source
in vivo [4] = settings: Sprague-Dawley, rat, po, 10 mg/mg; remark: listed apart in the source
in vivo [5] = settings: Sprague-Dawley, rat, iv, 1 mg/mg; remark: listed apart in the source
in vivo [6] = settings: Sprague-Dawley, rat, po, 10 mg/mg; remark: listed apart in the source
in vivo [7] = settings: Sprague-Dawley, rat, iv, 1 mg/mg; remark: listed apart in the source
in vivo [8] = settings: Sprague-Dawley, rat, po, 10 mg/mg; remark: listed apart in the source
in vivo [9] = settings: Sprague-Dawley, rat, iv, 1 mg/mg; remark: listed apart in the source
in vivo [10] = settings: Sprague-Dawley, rat, po, 10 mg/mg; remark: listed apart in the source
in vivo [11] = settings: Sprague-Dawley, rat, iv, 1 mg/mg; remark: listed apart in the source
in vivo [12] = settings: Sprague-Dawley, rat, iv, 1 mg/mg; remark: listed apart in the source
in vivo [13] = settings: Sprague-Dawley, rat, po, 10 mg/mg; remark: listed apart in the source
in vivo [14] = settings: Sprague-Dawley, rat, iv, 1 mg/mg; remark: listed apart in the source
in vivo [15] = settings: Sprague-Dawley, rat, po, 10 mg/mg; remark: listed apart in the source
in vivo [16] = settings: Sprague-Dawley, rat, po, 10 mg/mg; remark: listed apart in the source

Row | SMILES | Vz (Rattus norvegicus) [L/kg] | AUC(0-t) (in vivo [1]) [ng·h/mL] | AUC(0-t) (in vivo [2]) [ng·h/mL] | AUC(0-inf) (in vivo [3]) [ng·h/mL] | AUC(0-inf) (in vivo [4]) [ng·h/mL] | Cmax (in vivo [5]) [ng/mL] | Cmax (in vivo [6]) [ng/mL] | Tmax (in vivo [7]) [min] | Tmax (in vivo [8]) [h] | half-life (in vivo [9]) [h] | half-life (in vivo [10]) [h] | Vd (in vivo [11]) [L/kg] | clearance (in vivo [12]) [mL/min/kg] | CL/F (in vivo [13]) [mL/min/kg] | MRT inf (in vivo [14]) [h] | MRT inf (in vivo [15]) [h] | bioavailability (in vivo [16]) [%]
1 | CC(C)(C)c1cc(NC(=O)Nc2ccc(-c3cn4c(n3)sc3cc(OCCN5CCOCC5)ccc34)cc2)no1 [QUIZARTINIB] | 4.078 | 1930 | 14500 | 1970 | 15000 | 728 | 1140 | 1.8 | 8 | 4.38 | 3.73 | 3.53 | 9.35 | 12.6 | 5.83 | 10.1 | 75.9
2 | CC(C)(C)c1cc(NC(=O)Nc2ccc(-n3nc(-c4ccc(OCCN5CCOCC5)cc4)c4c(N)ncnc43)cc2)no1 | 0.06082 | 520 | 978 | 525 | 991 | 839 | 83.5 | 1.02 | 6.66 | 3.34 | 3.61 |  | 0.0345 | 0.193 | 3.13 | 7.22 | 18.8
